One block for each compound: values may come before it.
What was measured:
HeLa [1] = test: Antiproliferative activity against human HeLa cells assessed as reduction in cell viability incubated for 72 hrs by MTT assay; assay type: functional, cell-based
BT-474 = test: Antiproliferative activity against human BT-474 cells assessed as reduction in cell viability incubated for 72 hrs by CelltiterGlo luminescent assay; conditions: BT-474, 72 h
CAKI-1 = test: Antiproliferative activity against human CAKI-1 cells assessed as reduction in cell viability incubated for 72 hrs by CelltiterGlo luminescent assay; conditions: CAKI-1, 72 h
[2] = Antiproliferative activity against human HEK293 cells assessed as reduction in cell viability incubated for 72 hrs by CelltiterGlo luminescent assay; assay type: toxicity, cell-based
MES-SA = test: Antiproliferative activity against human MES-SA cells assessed as reduction in cell viability incubated for 72 hrs by CelltiterGlo luminescent assay
MDA-MB-468 = test: cells; conditions: Homo sapiens, MDA-MB-468, 72 h
Description: Antiproliferative activity against human MDA-MB-468 cells assessed as reduction in cell viability incubated for 72 hrs by CelltiterGlo luminescent assay

[3] = Antiproliferative activity against human Hermes 3C cells assessed as reduction in cell viability incubated for 72 hrs by CelltiterGlo luminescent assay; assay type: toxicity, cell-based
cells = conditions: Homo sapiens, MDA-MB-468, 72 h
MCF7 = test: Antiproliferative activity against human MCF7 cells assessed as reduction in cell viability incubated for 72 hrs by CelltiterGlo luminescent assay; assay type: functional, cell-based; conditions: MCF7, 72 h
HT-1080 = test: Antiproliferative activity against human HT-1080 cells assessed as reduction in cell viability incubated for 72 hrs by CelltiterGlo luminescent assay; conditions: HT-1080, 72 h
[4] = Antiproliferative activity against human Melmet 5 cells assessed as reduction in cell viability incubated for 72 hrs by CelltiterGlo luminescent assay; conditions: Melmet 5, 72 h
A-375 = test: Antiproliferative activity against human A-375 cells assessed as reduction in cell viability incubated for 72 hrs by CelltiterGlo luminescent assay; conditions: A-375, 72 h
HeLa [5] = test: Antiproliferative activity against human HeLa cells assessed as reduction in cell viability incubated for 72 hrs by CelltiterGlo luminescent assay; assay type: functional, cell-based
[6] = Antiproliferative activity against human RPE-1 cells assessed as reduction in cell viability incubated for 72 hrs by CelltiterGlo luminescent assay; assay type: toxicity, cell-based; conditions: RPE-1 cells (TERT-RPE1)
[7] = Antiproliferative activity against human WM1366 cells assessed as reduction in cell viability incubated for 72 hrs by CelltiterGlo luminescent assay; conditions: WM1366, 72 h
HeLa [8] = test: Antiproliferative activity against human HeLa cells assessed as inhibition of cell growth incubated for 72 hrs in presence of verapamil by MTT assay; assay type: functional, cell-based
HeLa [9] = test: Antiproliferative activity against human HeLa cells assessed as inhibition of cell growth incubated for 72 hrs in absence of verapamil by MTT assay; assay type: functional, cell-based

SMILES: COc1cc(S(=O)(=O)N(C)c2ccc3c(c2)C=CC3CC#N)cc(OC)c1OC (stereo not given)
IC50 (HeLa [1]): 114 nM

SMILES: COc1cc(S(=O)(=O)N(CCN2CCOCC2)c2ccc3c(ccn3C)c2)cc(OC)c1OC
IC50 (HeLa [1]): > 1000 nM

SMILES: COc1cc(S(=O)(=O)N(CCCN2CCOCC2)c2ccc3c(ccn3C)c2)cc(OC)c1OC
IC50 (HeLa [1]): > 1000 nM

SMILES: CC(=O)O[C@@]12CO[C@@H]1C[C@H](O)[C@@]1(C)C(=O)[C@H](O)C3=C(C)[C@@H](OC(=O)[C@H](O)[C@@H](NC(=O)OC(C)(C)C)c4ccccc4)C[C@@](O)([C@@H](OC(=O)c4ccccc4)[C@H]21)C3(C)C [DOCETAXEL ANHYDROUS]
IC50 (BT-474): 21.4 nM
IC50 (CAKI-1): 2.7 nM
IC50 at 72 h [2]: 7.5 nM
IC50 (MES-SA): 3.4 nM
IC50 (MDA-MB-468): 3.1 nM
IC50 at 72 h [3]: 1.7 nM
IC50 (cells): 8.3 nM
IC50 (MCF7): 3.9 nM
IC50 (HT-1080): 1.5 nM
IC50 [4]: 9.5 nM
IC50 (A-375): 4.5 nM
IC50 (HeLa [5]): 1 nM
IC50 at 72 h [6]: 8.2 nM
IC50 [7]: 8.5 nM

SMILES: COc1cc(S(=O)(=O)N(CC#N)c2ccc3c(c2)C=CC3CC#N)cc(OC)c1OC (stereo not given)
IC50 (HeLa [1]): 974 nM

SMILES: COc1cc(S(=O)(=O)N(CC(N)=O)c2ccc3c(ccn3C)c2)cc(OC)c1OC
IC50 (HeLa [1]): 275 nM

SMILES: COc1cc(S(=O)(=O)N(Cc2ccc([N+](=O)[O-])cc2)c2ccc3c(ccn3C)c2)cc(OC)c1OC
IC50 (HeLa [1]): > 1000 nM

SMILES: COc1cc2c(c(OC)c1OC)-c1ccc(OC)c(=O)cc1[C@@H](NC(C)=O)CC2 [COLCHICINE]
IC50 (HeLa [8]): 9.3 nM
IC50 (HeLa [9]): 16.7 nM

SMILES: COc1cc(S(=O)(=O)N(CC#N)c2ccc3c(c2)c(C=O)cn3C)cc(OC)c1OC
IC50 (BT-474): 66.4 nM
IC50 (CAKI-1): 66.2 nM
IC50 (HeLa [8]): 52.4 nM
IC50 at 72 h [2]: 70.9 nM
IC50 (MES-SA): 32.5 nM
IC50 (MDA-MB-468): 15.2 nM
IC50 at 72 h [3]: 81.3 nM
IC50 (cells): 14.7 nM
IC50 (HeLa [9]): 57.4 nM
IC50 (HeLa [1]): 22.7 nM
IC50 (MCF7): 15.3 nM
IC50 (HT-1080): 14 nM
IC50 [4]: 12.5 nM
IC50 (A-375): 49.8 nM
IC50 (HeLa [5]): 18.4 nM
IC50 at 72 h [6]: 41.3 nM
IC50 [7]: 31.4 nM

SMILES: COc1cc(S(=O)(=O)N(CC#N)c2ccc3c(c2)c(C(N)=O)cn3C)cc(OC)c1OC
IC50 (BT-474): 40.8 nM
IC50 (CAKI-1): 98.3 nM
IC50 (HeLa [8]): 26.4 nM
IC50 at 72 h [2]: 282 nM
IC50 (MES-SA): 14.2 nM
IC50 (MDA-MB-468): 20.3 nM
IC50 at 72 h [3]: 88.5 nM
IC50 (cells): 72.9 nM
IC50 (HeLa [9]): 50.9 nM
IC50 (HeLa [1]): 50.9 nM
IC50 (MCF7): 48.6 nM
IC50 (HT-1080): 16.6 nM
IC50 [4]: 16.2 nM
IC50 (A-375): 48.3 nM
IC50 (HeLa [5]): 68.8 nM
IC50 at 72 h [6]: 33 nM
IC50 [7]: 36 nM

SMILES: COc1cc(S(=O)(=O)N(CCCCCCN2CCOCC2)c2ccc3c(ccn3C)c2)cc(OC)c1OC
IC50 (HeLa [1]): > 1000 nM

SMILES: COc1cc(S(=O)(=O)N(CC#N)c2ccc3c(c2)c(C#N)cn3C)cc(OC)c1OC
IC50 (BT-474): 71.1 nM
IC50 (CAKI-1): 29.5 nM
IC50 (HeLa [8]): 27.2 nM
IC50 at 72 h [2]: 17.7 nM
IC50 (MES-SA): 80.3 nM
IC50 (MDA-MB-468): 31.6 nM
IC50 at 72 h [3]: 70.5 nM
IC50 (cells): 34.4 nM
IC50 (HeLa [9]): 34.5 nM
IC50 (HeLa [1]): 24.4 nM
IC50 (MCF7): 60.8 nM
IC50 (HT-1080): 65.8 nM
IC50 [4]: 32.3 nM
IC50 (A-375): 86.8 nM
IC50 (HeLa [5]): 77.3 nM
IC50 at 72 h [6]: 76.3 nM
IC50 [7]: 81.3 nM

The remaining lines, values ahead:

IC50 (HeLa [1]): > 1000 nM
SMILES: CCOC(=O)CCCN(c1ccc2c(ccn2C)c1)S(=O)(=O)c1cc(OC)c(OC)c(OC)c1

IC50 (HeLa [1]): 79.8 nM
SMILES: C#CCN(c1ccc2c(ccn2C)c1)S(=O)(=O)c1cc(OC)c(OC)c(OC)c1

IC50 (HeLa [1]): > 1000 nM
SMILES: COc1cc(S(=O)(=O)N(CCCCC(=O)O)c2ccc3c(ccn3C)c2)cc(OC)c1OC

IC50 (HeLa [1]): > 1000 nM
SMILES: COc1cc(S(=O)(=O)N(CCCBr)c2ccc3c(ccn3C)c2)cc(OC)c1OC

IC50 (HeLa [1]): > 1000 nM
SMILES: COc1cc(S(=O)(=O)N(CCCCCBr)c2ccc3c(ccn3C)c2)cc(OC)c1OC

IC50 (HeLa [1]): > 1000 nM
SMILES: COc1cc(S(=O)(=O)N(CCCCBr)c2ccc3c(ccn3C)c2)cc(OC)c1OC
